This is an account of results in US20050080046A1, “Storage stable eplerenone formulation” (priority 2002, published 2005).

≈ marks a conversion by molar mass, not a printed value.

Data set [1] can be described thus: Solubility of eplerenone in pure solubilizers at room temperature. Particulars: organic solvent or mixture. It counts as physicochemical. As for the experimental part: Preparation of a pharmaceutically acceptable parenteral eplerenone formulation is therefore made difficult by the fact that (a) the solubility of eplerenone in many otherwise parenterally acceptable solubilizers, even in such solubilizers in pure form, is very low, (b) eplerenone dose requirements are relatively high (e.g. about 50 mg/day or more), and (c) the concentration and/or total amount of many parenterally acceptable solubilizers which can be safely parenterally delivered to a subject is relatively low.

Data set [2] is described as follows: Storage stability of eplerenone solution formulations SF-2 to SF-5 at different pH, HPLC (Example 2). Format: physicochemical. Particulars: storage at various temperatures and for various time periods. The text has this:
The pH of each formulation was adjusted as indicated.
Aliquots of each solution formulation were stored at four different temperatures for a period of 12 weeks. Degradation of eplerenone was monitored via high performance liquid chromatography (HPLC) throughout storage.
Cells in Table 3 which have the symbol “--” therein indicate that no stability data was collected for that particular time and storage temperature.

For the compound `COC(=O)[C@@H]1CC2=CC(=O)CC[C@]2(C)[C@@]23O[C@@H]2C[C@@]2(C)[C@@H](CC[C@@]24CCC(=O)O4)[C@H]13` [eplerenone, methyl hydrogen 9,11α-epoxy-17α-hydroxy-3-oxopregn-4-ene-7α,21-dicarboxylate, γ-lactone], the solubility (in general, the concentration that dissolves in the medium under given conditions) was below 1600 µg/mL in data set [1] (pure glycerin, room temperature); 3300 to 5700 µg/mL (≈ 7.96 to 13.8 mM) in data set [1] (pure polyethylene glycol 400, room temperature); below 300 µg/mL in data set [1] (pure propylene glycol, room temperature). For the same compound, the “stability of eplerenone in solution by pH (in words)” value in data set [2] was “more stable in a solution maintained at a pH of 5 than at a pH of 2, 7 or 9”.
